One block for each compound: values may come before it. Active and inactive are the calls of the source. The calls are words filed in the database; no cut-off is given here.
Tests used:
[1] = tested on: SW1990; assay: Antiproliferative activity against human SW1990 cells assessed as reduction in cell viability after 4 days by MTT assay; assay type: functional, cell-based; settings: SW1990, 96 h
[2] = tested on: MDA-MB-231; assay: Antiproliferative activity against human MDA-MB-231 cells assessed as reduction in cell viability after 7 days; assay type: functional, cell-based; settings: MDA-MB-231, 168 h
[3] = molecular target: T1, Bromodomain-containing protein 4 (Homo sapiens, UniProt O60885); assay: Inhibition of recombinant BRD4 (unknown origin) at 0.5 uM incubated for 120 mins by TR-FRET assay relative to control
[4] = molecular target: Poly [ADP-ribose] polymerase 1 (Homo sapiens, UniProt P09874); assay: Inhibition of PARP1 (unknown origin) incubated for 45 mins in presence of biotinylated-NAD+ by microplate reader analysis
Poly [ADP-ribose] polymerase 1, sequence (P09874 whole entry): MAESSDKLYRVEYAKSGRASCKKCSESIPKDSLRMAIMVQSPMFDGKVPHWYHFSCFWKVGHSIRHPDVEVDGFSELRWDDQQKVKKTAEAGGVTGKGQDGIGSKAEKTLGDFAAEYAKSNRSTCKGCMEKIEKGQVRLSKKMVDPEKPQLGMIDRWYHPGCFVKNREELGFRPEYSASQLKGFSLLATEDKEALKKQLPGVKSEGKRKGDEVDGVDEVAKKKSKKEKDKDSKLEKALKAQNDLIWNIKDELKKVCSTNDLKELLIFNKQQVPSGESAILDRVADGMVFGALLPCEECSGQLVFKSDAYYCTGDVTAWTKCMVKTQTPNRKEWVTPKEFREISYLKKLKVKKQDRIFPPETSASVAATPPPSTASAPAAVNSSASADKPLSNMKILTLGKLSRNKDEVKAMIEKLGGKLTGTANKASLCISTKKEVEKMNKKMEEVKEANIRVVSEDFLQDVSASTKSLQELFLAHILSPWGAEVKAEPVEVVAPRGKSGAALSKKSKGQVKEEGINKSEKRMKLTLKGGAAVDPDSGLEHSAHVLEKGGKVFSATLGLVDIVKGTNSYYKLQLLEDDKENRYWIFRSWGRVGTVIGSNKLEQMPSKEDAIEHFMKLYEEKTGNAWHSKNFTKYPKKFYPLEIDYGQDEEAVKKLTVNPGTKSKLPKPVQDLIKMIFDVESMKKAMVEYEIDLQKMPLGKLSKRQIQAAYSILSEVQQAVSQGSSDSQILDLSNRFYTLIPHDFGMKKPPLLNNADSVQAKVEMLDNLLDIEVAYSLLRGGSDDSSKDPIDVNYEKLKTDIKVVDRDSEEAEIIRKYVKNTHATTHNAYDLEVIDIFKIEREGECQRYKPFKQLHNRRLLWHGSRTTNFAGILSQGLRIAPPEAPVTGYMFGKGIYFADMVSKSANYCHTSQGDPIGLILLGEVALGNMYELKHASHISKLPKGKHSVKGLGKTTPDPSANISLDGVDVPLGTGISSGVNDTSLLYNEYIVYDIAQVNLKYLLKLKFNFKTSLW

[5] = tested on: Mus musculus; assay: Toxicity in BALB/c mouse xenografted with human SW1990 cells assessed as lung damage at 45 mg/kg, ip administered for 28 consecutive days by H and E staining based […] microscopic analysis; assay type: organism-based; settings: in vivo, 672 h, time 28 day
[6] = tested on: SW1990; assay: Induction of autophagy in human SW1990 cells assessed as reduction in p62 expression at 6 uM incubated for 4 days by immunofluorescence assay; assay type: functional, cell-based; settings: time 4.0 day
[7] = tested on: SW1990; assay: Induction of DNA damage in human SW1990 cells assessed as tail DNA at 6 uM incubated for 4 days by comet assay; assay type: functional, cell-based; settings: time 4.0 day
[8] = tested on: SW1990; assay: Effect on cell cycle progression in human SW1990 cells assessed as reduction in CDK6 expression at 6 uM after 4 days by Western blot analysis; assay type: functional, cell-based; settings: time 4.0 day
[9] = tested on: Mus musculus; assay: In vivo inhibition of PARP1 expression in human […] cells xenografted in BALB/c mouse at 45 mg/kg, ip administered for 28 consecutive days by immunohistochemical analysis; assay type: functional, organism-based; settings: time 28.0 day
[10] = tested on: SW1990; assay: Inhibition of homologous recombinant repair in human SW1990 cells assessed as reduction in Rad51 expression at 6 uM after 4 days by Q-PCR analysis; assay type: functional, cell-based; settings: time 4.0 day
[11] = tested on: Mus musculus; assay: In vivo inhibition of BRD4 expression in human […] cells xenografted in BALB/c mouse at 45 mg/kg, ip administered for 28 consecutive days by Western blot analysis; assay type: functional, organism-based; settings: time 28.0 day
[12] = tested on: Mus musculus; assay: Toxicity in BALB/c mouse xenografted with human SW1990 cells assessed as liver damage at 45 mg/kg, ip administered for 28 consecutive days by H and E staining based […] microscopic analysis; assay type: organism-based; settings: in vivo, 672 h, time 28 day
[13] = tested on: SW1990; assay: Effect on cell cycle progression in human SW1990 cells assessed as reduction in CDK6 expression at 6 uM after 4 days by Q-PCR analysis; assay type: functional, cell-based; settings: time 4.0 day
[14] = tested on: SW1990; assay: Inhibition of homologous recombinant repair in human SW1990 cells assessed as reduction in FOXM1 expression at 6 uM after 4 days by Q-PCR analysis; assay type: functional, cell-based; settings: time 4.0 day
[15] = tested on: Mus musculus; assay: Effect on cell cycle progression in human SW1990 cells xenografted in BALB/c mouse assessed as reduction in CDK6 expression at 45 mg/kg, ip after 4 days by Q-PCR analysis; assay type: functional, organism-based; settings: time 4.0 day
[16] = tested on: Mus musculus; assay: Effect on cell cycle progression in human SW1990 cells xenografted in BALB/c mouse assessed as reduction in CDK6 expression at 45 mg/kg, ip after 4 days by Western blot analysis; assay type: functional, organism-based; settings: time 4.0 day
[17] = molecular target: T1, Bromodomain-containing protein 4; assay: Inhibition of BRD4 expression in human SW1990 cells at 6 uM after 4 days by Q-PCR analysis; assay type: cell-based; settings: time 4.0 day
[18] = tested on: CFPAC-1; assay: Antiproliferative activity against human CFPAC-1 cells assessed as reduction in cell viability after 4 days by MTT assay; assay type: functional, cell-based; settings: CFPAC-1, 96 h
[19] = tested on: Mus musculus; assay: Toxicity in BALB/c mouse xenografted with human SW1990 cells assessed as effect on body weight at 45 mg/kg, ip administered for 28 consecutive days; assay type: organism-based; settings: in vivo, 672 h, time 28 day
[20] = molecular target: T1, Bromodomain-containing protein 4; assay: Inhibition of BRD4 expression in human SW1990 cells at 6 uM after 4 days by Western blot analysis; assay type: cell-based; settings: time 4.0 day
[21] = tested on: SW1990; assay: Effect on cell cycle progression in human SW1990 cells assessed as reduction in PLK1 expression at 6 uM after 4 days by Western blot analysis; assay type: functional, cell-based; settings: time 4.0 day
[22] = tested on: SW1990; assay: Effect on cell cycle progression in human SW1990 cells assessed as reduction in CCND1 expression at 6 uM after 4 days by Q-PCR analysis; assay type: functional, cell-based; settings: time 4.0 day
[23] = tested on: Mus musculus; assay: Effect on cell cycle progression in human SW1990 cells xenografted in BALB/c mouse assessed as reduction in CCND1 expression at 45 mg/kg, ip after 4 days by Western blot analysis; assay type: functional, organism-based; settings: time 4.0 day
[24] = tested on: Mus musculus; assay: Toxicity in BALB/c mouse xenografted with human SW1990 cells assessed as heart damage at 45 mg/kg, ip administered for 28 consecutive days by H and E staining based […] microscopic analysis; assay type: organism-based; settings: in vivo, 672 h, time 28 day
[25] = tested on: Mus musculus; assay: In vivo inhibition of BRD4 expression in human […] cells xenografted in BALB/c mouse at 45 mg/kg, ip administered for 28 consecutive days by Q-PCR analysis; assay type: functional, organism-based; settings: time 28.0 day
[26] = tested on: Mus musculus; assay: Toxicity in BALB/c mouse xenografted with human SW1990 cells assessed as spleen damage at 45 mg/kg, ip administered for 28 consecutive days by H and E staining based […] microscopic analysis; assay type: organism-based; settings: in vivo, 672 h, time 28 day
[27] = tested on: Mus musculus; assay: In vivo inhibition of PARP1 expression in human […] cells xenografted in BALB/c mouse at 45 mg/kg, ip administered for 28 consecutive days by Western blot analysis; assay type: functional, organism-based; settings: time 28.0 day
[28] = tested on: SW1990; assay: Effect on cell cycle progression in human SW1990 cells assessed as reduction in PLK1 expression at 6 uM after 4 days by Q-PCR analysis; assay type: functional, cell-based; settings: time 4.0 day
[29] = tested on: SW1990; assay: Effect on cell cycle progression in human SW1990 cells assessed as reduction in CCND1 expression at 6 uM after 4 days by Western blot analysis; assay type: functional, cell-based; settings: time 4.0 day
[30] = tested on: SW1990; assay: Inhibition of homologous recombinant repair in human SW1990 cells assessed as reduction in BRCA1 expression at 6 uM after 4 days by Western blot analysis; assay type: functional, cell-based; settings: time 4.0 day
[31] = tested on: SW1990; assay: Inhibition of homologous recombinant repair in human SW1990 cells assessed as reduction in BRCA1 expression at 6 uM after 4 days by Q-PCR analysis; assay type: functional, cell-based; settings: time 4.0 day
[32] = tested on: Mus musculus; assay: Toxicity in BALB/c mouse xenografted with human SW1990 cells assessed as kidney damage at 45 mg/kg, ip administered for 28 consecutive days by H and E staining based […] microscopic analysis; assay type: organism-based; settings: in vivo, 672 h, time 28 day
[33] = tested on: SW1990; assay: Induction of autophagy in human SW1990 cells assessed as increase in LC3B expression at 6 uM incubated for 4 days by immunofluorescence assay; assay type: functional, cell-based; settings: time 4.0 day
[34] = tested on: Mus musculus; assay: In vivo inhibition of PARP1 expression in human […] cells xenografted in BALB/c mouse at 45 mg/kg, ip administered for 28 consecutive days by Q-PCR analysis; assay type: functional, organism-based; settings: time 28.0 day
[35] = tested on: CAPAN-1; assay: Antiproliferative activity against human CAPAN-1 cells assessed as reduction in cell viability after 4 days by MTT assay; assay type: functional, cell-based; settings: CAPAN-1, 96 h
[36] = tested on: Mus musculus; assay: Effect on cell cycle progression in human SW1990 cells xenografted in BALB/c mouse assessed as reduction in PLK1 expression at 45 mg/kg, ip after 4 days by Western blot analysis; assay type: functional, organism-based; settings: time 4.0 day
[37] = tested on: Mus musculus; assay: Effect on cell cycle progression in human SW1990 cells xenografted in BALB/c mouse assessed as reduction in PLK1 expression at 45 mg/kg, ip after 4 days by Q-PCR analysis; assay type: functional, organism-based; settings: time 4.0 day
[38] = tested on: SW1990; assay: Inhibition of homologous recombinant repair in human SW1990 cells assessed as reduction in Rad51 expression at 6 uM after 4 days by Western blot analysis; assay type: functional, cell-based; settings: time 4.0 day
[39] = tested on: Mus musculus; assay: In vivo inhibition of BRD4 expression in human […] cells xenografted in BALB/c mouse at 45 mg/kg, ip administered for 28 consecutive days by immunohistochemical analysis; assay type: functional, organism-based; settings: time 28.0 day
[40] = tested on: SW1990; assay: Induction of DNA damage in human SW1990 cells assessed as increase in gammaH2AX at 6 uM incubated for 4 days by immunofluorescence assay; assay type: functional, cell-based; settings: time 4.0 day
[41] = tested on: Mus musculus; assay: Effect on cell cycle progression in human SW1990 cells xenografted in BALB/c mouse assessed as reduction in CCND1 expression at 45 mg/kg, ip after 4 days by Q-PCR analysis; assay type: functional, organism-based; settings: time 4.0 day
[42] = molecular target: T1, Bromodomain-containing protein 4; assay: Inhibition of recombinant BRD4 (unknown origin) incubated for 120 mins by TR-FRET assay

Compound: O=C(c1cc(Cc2n[nH]c(=O)c3ccccc23)ccc1F)N1CCN(C(=O)C2CC2)CC1 [OLAPARIB]
- Activity [5]: Non-Toxic
- Activity [6]: inactive
- Activity [7]: Active
- Activity [8]: inactive
- Activity [9]: inactive
- inhibition [10]: inactive
- Activity [11]: inactive
- Activity [12]: Non-Toxic
- Activity [13]: inactive
- inhibition [14]: inactive
- IC50 [1]: 5.73 µM
- IC50 [2]: 8.48 µM
- Activity [15]: inactive
- Activity [16]: inactive
- inhibition [17]: inactive
- IC50 [18]: 13.7 µM
- Activity [19]: Non-Toxic
- inhibition [20]: inactive
- Activity [21]: inactive
- Activity [22]: inactive
- Activity [23]: inactive
- Activity [24]: Non-Toxic
- Activity [25]: inactive
- Activity [26]: Non-Toxic
- Activity [27]: inactive
- Activity [28]: inactive
- Activity [29]: inactive
- inhibition [30]: inactive
- inhibition [31]: inactive
- Activity [32]: Non-Toxic
- Activity [33]: inactive
- Activity [34]: inactive
- IC50 [35]: 8.42 µM
- Activity [36]: inactive
- Activity [37]: inactive
- inhibition [38]: inactive
- Activity [39]: inactive
- Activity [40]: inactive
- Activity [41]: inactive

Compound: CC[C@@H]1C(=O)N(C)c2cnc(Nc3ccc(-c4nc5c(C(N)=O)cccc5[nH]4)cc3OC(C)C)nc2N1C1CCCC1
- inhibition [3]: 75%
- IC50 [4]: 2.05 µM

Compound: CC[C@@H]1C(=O)N(C)c2cnc(Nc3ccc(-c4nc5c(C(N)=O)cccc5[nH]4)cc3OC)nc2N1Cc1cccc(C(F)(F)F)c1
- inhibition [3]: 17%
- IC50 [4]: 1.76 µM

Compound: CC[C@@H]1C(=O)N(C)c2cnc(Nc3ccc(Cc4nc5c(C(N)=O)cccc5[nH]4)cc3OC)nc2N1C1CCCC1
- IC50 [1]: 3.12 µM
- IC50 [2]: 0.81 µM
- IC50 [42]: 0.186 µM
- IC50 [4]: 0.355 µM

Compound: CC[C@@H]1C(=O)N(C)c2cnc(Nc3ccc(-c4nc5c(C(N)=O)cccc5[nH]4)cc3OC3CCCC3)nc2N1C1CCCC1
- inhibition [3]: 47%
- IC50 [4]: 1.82 µM

The remaining compounds from weak to strong by IC50 [4], led by results:

- IC50 [1]: 2.45 µM
- IC50 [2]: 0.79 µM
- inhibition [3]: 86%
- IC50 [4]: 0.306 µM
Compound: CCOc1cc(-c2nc3c(C(N)=O)cccc3[nH]2)ccc1Nc1ncc2c(n1)N(C1CCCC1)[C@H](CC)C(=O)N2C

- IC50 [42]: 0.693 µM
- IC50 [4]: 0.155 µM
Compound: CC[C@@H]1C(=O)N(C)c2cnc(Nc3cccc(-c4nc5c(C(N)=O)cccc5[nH]4)c3)nc2N1C1CCCC1

- IC50 [1]: 2.81 µM
- IC50 [2]: 0.83 µM
- IC50 [42]: 0.842 µM
- IC50 [4]: 0.043 µM
Compound: CC[C@@H]1C(=O)N(C)c2cnc(Nc3ccc(-c4nc5c(C(N)=O)cccc5[nH]4)cc3)nc2N1C1CCCC1

- IC50 [1]: 1.53 µM
- IC50 [2]: 0.46 µM
- IC50 [42]: 0.202 µM
- IC50 [4]: 0.025 µM
Compound: COc1cc(-c2nc3c(C(N)=O)cccc3[nH]2)ccc1N(C)c1ncc2c(n1)N(C1CCCC1)[C@H](C)C(=O)N2C

Reference: ChEMBL document CHEMBL5053549, “Discovery of Potent and Novel Dual PARP/BRD4 Inhibitors for Efficient Treatment of Pancreatic Cancer” (J Med Chem, 2021)
